Patent publication US6593303B1, “Anti-tumor synergetic composition” (Pharmacia & Upjohn, S.p.A., priority 1999, dated 2003)

Assays:
[1] = test system: H207 human ovarian carcinoma; assay: Antitumor activity on s.c. implanted H207 human ovarian carcinoma
[2] = test system: disseminated L1210 murine leukemia; assay: Antileukemic activity against disseminated L1210 murine leukemia (cells injected iv)
[3] = test system: A549 human lung carcinoma; assay: Antitumor activity on s.c. implanted A549 human lung carcinoma
MX1 mammary carcinoma = assay: Antitumor activity on s.c. injected MX1 mammary carcinoma; format: in vivo, mice
[4] = Ia alone 1.5 mg/kg/day iv q4dx3
[5] = Ia alone 1 mg/kg/day iv day +1,2
[6] = Table 2, Ia alone 1.5 mg/kg/day iv q4dx3
[7] = Table 3, Ia alone 2 mg/kg/day iv +7,11,15
[8] = Ia alone 0.5 mg/kg/day iv 8,12,16
[9] = Ia alone 1 mg/kg/day iv 8,12,16
[10] = Paclitaxel alone 22 mg/kg/day iv q4dx3
[11] = Paclitaxel alone 33 mg/kg/day iv q4dx3
[12] = Table 3, Paclitaxel alone 22 mg/kg/day iv +9,13,17
[13] = Table 3, Paclitaxel alone 33 mg/kg/day iv +9,13,17
[14] = Table 2, CisPlatin alone 3 mg/kg/day iv q4dx2
[15] = Taxotere alone 5 mg/kg/day iv 10,14,18
[16] = Taxotere alone 10 mg/kg/day iv 10,14,18

With `CC(=O)[C@]1(O)Cc2c(O)c3c(c(O)c2[C@@H](OC2CC(N4CC4)C(OS(C)(=O)=O)C(C)O2)C1)C(=O)c1ccccc1C3=O` (some centres unmarked) [Ia, 4-demethoxy-3′-deamino-3′-aziridinyl-4′-methansulfonyl daunorubicin] the “N° of Tumor-Free Survivors” value [1, 4] was 0/7, the “T-C N° of days (tumor growth delay, 1 g)” value [1, 4] was 47 days and the “T.I. % (tumor inhibition)” value [1, 4] was 100%. The “Tox (number of toxic deaths/number of mice)” value [1, 4] was 0/7, the “Body weight Reduction % (day)” value ([1]; Ia alone 1.5 mg/kg/day iv q4dx3, day 15) was 7% and the “ILS % (increase in life span)” value [2, 5] was 83%. For the same compound, the “Tox (number of toxic deaths/number of mice)” value [2, 5] was 0/10, the “N° of Tumor-Free Survivors” value [3, 6] was 0/9 and the “T-C N° of days (tumor growth delay, 1 g)” value [3, 6] was 5 days. For the same compound, the “T.I. % (tumor inhibition)” value [3, 6] was 48%, the “Tox (number of toxic deaths/number of mice)” value [3, 6] was 0/9 and the “Body weight Reduction % (day)” value ([3]; Table 2, Ia alone 1.5 mg/kg/day iv q4dx3, day 14) was 9(14) %. The “N° of Tumor-Free Survivors” value [3, 7] was 0/8, the “T-C N° of days (tumor growth delay, 1 g)” value [3, 7] was 9 days and the “T.I. % (tumor inhibition)” value [3, 7] was 69%. The “Tox (number of toxic deaths/number of mice)” value [3, 7] was 0/8, the “Body weight Reduction % (day)” value ([3]; Table 3, Ia alone 2 mg/kg/day iv +7,11,15, day 13) was 11% and the “Body weight Reduction % (day)” value (MX1 mammary carcinoma; [8]) was 0%. The “N° of Tumor-Free Survivors” value (MX1 mammary carcinoma; [8]) was 0/8, the “T.I. % (tumor inhibition)” value (MX1 mammary carcinoma; [8]) was 46% and the “TGD (lg) days (tumor growth delay treated - control)” value (shortened to “TGD (lg) days”) (MX1 mammary carcinoma; [8]) was 1 days. The “Tox (number of toxic deaths/number of mice)” value (MX1 mammary carcinoma; [8]) was 0/8, the “N° of Tumor-Free Survivors” value (MX1 mammary carcinoma; [9]) was 1/7 and the “T.I. % (tumor inhibition)” value (MX1 mammary carcinoma; [9]) was 94%. The “TGD (lg) days” value (MX1 mammary carcinoma; [9]) was 2 days, the “Tox (number of toxic deaths/number of mice)” value (MX1 mammary carcinoma; [9]) was 0/7 and the “Body weight Reduction % (day)” value (MX1 mammary carcinoma; Ia alone 1 mg/kg/day iv 8,12,16, day 17) was 5%.

`O=C1[O][Pt]2([NH][C@@H]3CCCC[C@H]3[NH]2)[O]C1=O` [Oxaliplatinum, Oxaliplatin] was tested, and the “ILS % (increase in life span)” value ([2]; Oxaliplatinum alone 8 mg/kg/day ip day +3) was 83%.

For `CC(=O)O[C@H]1C(=O)[C@@]2(C)[C@H]([C@H](OC(=O)c3ccccc3)[C@]3(O)C[C@H](OC(=O)[C@H](O)[C@@H](NC(=O)c4ccccc4)c4ccccc4)C(C)=C1C3(C)C)[C@]1(OC(C)=O)CO[C@@H]1C[C@@H]2O` [Paclitaxel], the “Body weight Reduction % (day)” value [1, 10] was 0%, the “N° of Tumor-Free Survivors” value [1, 10] was 0/7 and the “T-C N° of days (tumor growth delay, 1 g)” value [1, 10] was 9 days. The “T.I. % (tumor inhibition)” value [1, 10] was 80%, the “Tox (number of toxic deaths/number of mice)” value [1, 10] was 0/7 and the “N° of Tumor-Free Survivors” value [1, 11] was 0/7. The “T-C N° of days (tumor growth delay, 1 g)” value [1, 11] was 12 days, the “T.I. % (tumor inhibition)” value [1, 11] was 86% and the “Tox (number of toxic deaths/number of mice)” value [1, 11] was 0/7. For the same compound, the “Body weight Reduction % (day)” value ([1]; Paclitaxel alone 33 mg/kg/day iv q4dx3, day 13) was 3%, the “Body weight Reduction % (day)” value [3, 12] was 0% and the “N° of Tumor-Free Survivors” value [3, 12] was 0/8. The “T-C N° of days (tumor growth delay, 1 g)” value [3, 12] was 27 days, the “T.I. % (tumor inhibition)” value [3, 12] was 90% and the “Tox (number of toxic deaths/number of mice)” value [3, 12] was 0/8. The “Body weight Reduction % (day)” value [3, 13] was 0%, the “N° of Tumor-Free Survivors” value [3, 13] was 0/8 and the “T-C N° of days (tumor growth delay, 1 g)” value [3, 13] was 29 days. For the same compound, the “T.I. % (tumor inhibition)” value [3, 13] was 93% and the “Tox (number of toxic deaths/number of mice)” value [3, 13] was 0/8.

For `N.N.[Cl][Pt][Cl]` [CisPlatin], the “N° of Tumor-Free Survivors” value [3, 14] was 0/9, the “T-C N° of days (tumor growth delay, 1 g)” value [3, 14] was 0 days and the “T.I. % (tumor inhibition)” value [3, 14] was 16%. For the same compound, the “Body weight Reduction % (day)” value ([3]; Table 2, CisPlatin alone 3 mg/kg/day iv q4dx2, day 18) was 2(18) %.

In the case of `CC(=O)O[C@@]12CO[C@@H]1C[C@H](O)[C@@]1(C)C(=O)[C@H](O)C3=C(C)[C@@H](OC(=O)[C@H](O)[C@@H](NC(=O)OC(C)(C)C)c4ccccc4)C[C@@](O)([C@@H](OC(=O)c4ccccc4)[C@H]21)C3(C)C` [Taxotere, Docetaxel], the “Body weight Reduction % (day)” value (MX1 mammary carcinoma; [15]) is reported as 0%, the “N° of Tumor-Free Survivors” value (MX1 mammary carcinoma; [15]) is reported as 0/8 and the “T.I. % (tumor inhibition)” value (MX1 mammary carcinoma; [15]) is reported as 60%. The “TGD (lg) days” value (MX1 mammary carcinoma; [15]) was 1 days, the “Tox (number of toxic deaths/number of mice)” value (MX1 mammary carcinoma; [15]) was 0/8 and the “N° of Tumor-Free Survivors” value (MX1 mammary carcinoma; [16]) was 2/8. For the same compound, the “T.I. % (tumor inhibition)” value (MX1 mammary carcinoma; [16]) was 99%, the “TGD (lg) days” value (MX1 mammary carcinoma; [16]) was 42 days and the “Tox (number of toxic deaths/number of mice)” value (MX1 mammary carcinoma; [16]) was 0/8. The “Body weight Reduction % (day)” value (MX1 mammary carcinoma; Taxotere alone 10 mg/kg/day iv 10,14,18, day 25) was 8%.
